Patent publication US20140187593A1, “DIAGNOSTIC TEST AND TREATMENT FOR A NE[…]” (priority 2012, published 2014)

Tested on: patients with VMAT2 mutation
Assay: Clinical response of the index case to vitamin B6 or folinic acid
Type: in vivo, human
Excerpt: The index case was a person with global developmental delay and abnormal movements. They had first been brought to medical attention with hypotonia, loss of acquired head control, and paroxysmal stereotyped episodes of persistent eye deviation and crying lasting hours. Video-EEG monitoring had excluded seizures, and a symptom diagnosis of oculogyric crisis had been made. Development had been normal initially, but had slowed after presentation. […] […] […] They had axial hypotonia and appendicular hypertonia specifically involving extensor muscles of upper and lower extremities. Deep tendon reflexes were 2+/4 and plantars flexor. […] Gait was parkinsonian with typical shuffling, posture was stooped, and postural reflexes diminished. They walked with bilateral alternating dystonia of hands and feet with intermittent toe walking and foot inversion, and was unable to tandem walk.

Structure (SMILES) | Clinical improvement of symptoms
Nc1nc(=O)c2c([nH]1)NCC(CNc1ccc(C(=O)N[C@@H](CCC(=O)O)C(=O)O)cc1)N2C=O (mixture of isomers) [folinic acid] | no improvement
Cc1ncc(CO)c(CO)c1O.Cl [vitamin B6] | no improvement
